The results in this text go back to patent US7507730B2, “Substituted pyrazolo[1,5-a]pyrimidines as potassium channel activators” (Bristol-Myers Squibb Company, priority 2005, dated 2009).

Usually inhibition stands for how much of the control response was suppressed. As usually defined, the IC50 is the concentration needed to halve the response being measured.

Kv1.5, sequence (P22460 whole entry): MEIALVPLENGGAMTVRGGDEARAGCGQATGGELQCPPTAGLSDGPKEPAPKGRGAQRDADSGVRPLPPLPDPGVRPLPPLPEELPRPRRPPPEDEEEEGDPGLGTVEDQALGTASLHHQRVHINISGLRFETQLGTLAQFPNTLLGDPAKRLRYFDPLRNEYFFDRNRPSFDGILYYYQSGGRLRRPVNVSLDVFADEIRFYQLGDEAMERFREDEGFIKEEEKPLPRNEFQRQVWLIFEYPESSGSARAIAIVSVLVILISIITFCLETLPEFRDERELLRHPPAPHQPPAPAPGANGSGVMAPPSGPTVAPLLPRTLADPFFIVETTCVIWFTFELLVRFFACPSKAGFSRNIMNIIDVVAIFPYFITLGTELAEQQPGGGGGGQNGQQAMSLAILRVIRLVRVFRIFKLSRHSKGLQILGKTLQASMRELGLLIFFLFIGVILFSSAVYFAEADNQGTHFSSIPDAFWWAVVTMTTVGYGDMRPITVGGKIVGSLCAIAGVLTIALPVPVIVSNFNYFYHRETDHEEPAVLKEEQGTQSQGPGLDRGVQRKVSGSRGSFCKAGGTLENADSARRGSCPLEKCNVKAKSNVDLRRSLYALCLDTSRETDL

One experiment concerns the target Kv1.5 (Homo sapiens, UniProt P22460). Briefly: Kv1.5 inhibition assay (IKur inhibitor assay per cited references). Format: cell-based. The conditions noted are these: at 0.3 μM. The text has this: Assays to determine the degree of activity of a compound as an IKur inhibitor are well known in the art and are described in references such as J. Gen. Physiol. Apr.; 101 (4):513-43, and Br. J. Pharmacol. 1995 May; 115(2):267-74.
Compound `CC1=C(S(=O)(=O)c2ccccc2)C(c2ccc(F)c(C)c2)n2nc(C(F)(F)F)cc2N1` (racemic) [Example 22, 7-(4-Fluoro-3-methylphenyl)-5-methyl-6-(phenylsulfonyl)-2-(trifluoromethyl)-4,7-dihydropyrazolo[1,5-a]pyrimidine] registered an inhibition at 0.3 µM of 30.7%.
`CC1=C(S(=O)(=O)c2ccc(F)cc2)C(c2ccc(Cl)c(Cl)c2)n2nc(C)cc2N1` (single isomer, unassigned) [Example 1 Isomer 2, 7-(3,4-Dichlorophenyl)-6-(4-fluorophenylsulfonyl)-2,5-dimethyl-4,7-dihydropyrazolo[1,5-a]pyrimidine] yielded a Kv1.5% inhibition of 48%.
For the compound `CCCCS(=O)(=O)C1=C(C)Nc2cc(C(F)(F)F)nn2C1c1ccc(Cl)cc1` (single isomer, unassigned) [Example 30 Isomer 2, 6-(Butylsulfonyl)-7-(4-chlorophenyl)-5-methyl-2-(trifluoromethyl)-4,7-dihydropyrazolo[1,5-a]pyrimidine], the inhibition at 0.3 µM amounted to 77%.
For `COc1ccc(S(=O)(=O)C2=C(C)Nc3cc(C(F)(F)F)nn3C2c2ccc(Cl)cc2)cc1` (single isomer, unassigned) [Example 25 Isomer 2, 7-(4-Chlorophenyl)-6-(4-methoxyphenylsulfonyl)-5-methyl-2-(trifluoromethyl)-4,7-dihydropyrazolo[1,5-a]pyrimidine], the Kv1.5% inhibition is on record as 82.9%.
Compound `CC1=C(S(=O)(=O)C2CCCCC2)C(c2ccc(Cl)cc2)n2nc(C(F)(F)F)cc2N1` (single isomer, unassigned) [Example 29 Isomer 2, 7-(4-Chlorophenyl)-6-(cyclohexylsulfonyl)-5-methyl-2-(trifluoromethyl)-4,7-dihydropyrazolo[1,5-a]pyrimidine] showed an inhibition at 0.3 µM of 87.9%.
On to `CCN(C(=O)C1=C(C)Nc2cc(C)nn2C1c1ccc(Cl)c(Cl)c1)S(=O)(=O)c1c(C)noc1C` (single isomer, unassigned) [Example 97 Isomer 2, 7-(3,4-Dichlorophenyl)-N-(3,5-dimethylisoxazol-4-ylsulfonyl)-N-ethyl-2,5-dimethyl-4,7-dihydropyrazolo[1,5-a]pyrimidine-6-carboxamide], for which the Kv1.5% inhibition was determined as 50%.
For `CCCCS(=O)(=O)NC(=O)C1=C(C)Nc2cc(C(F)(F)F)nn2C1c1ccc(Cl)c(Cl)c1` (racemic) [Example 85, N-(Butylsulfonyl)-7-(3,4-dichlorophenyl)-5-methyl-2-(trifluoromethyl)-4,7-dihydropyrazolo[1,5-a]pyrimidine-6-carboxamide], at 0.3 µM the inhibition was 11%.
Same read-out and setting: then `CC1=C(S(=O)(=O)NCc2ccccc2)C(c2ccc(Cl)cc2)n2nc(C(F)(F)F)cc2N1` (racemic) [Example 54, N-Benzyl-7-(4-chlorophenyl)-5-methyl-2-(trifluoromethyl)-4,7-dihydropyrazolo[1,5-a]pyrimidine-6-sulfonamide], with 27.7%.
`CC1=C(S(=O)(=O)c2ccc(C)cc2)C(c2ccc(Cl)cc2)n2nc(C(F)(F)F)cc2N1` (single isomer, unassigned) [Example 28 Isomer 2, 7-(4-Chlorophenyl)-5-methyl-6-tosyl-2-(trifluoromethyl)-4,7-dihydropyrazolo[1,5-a]pyrimidine] gave a Kv1.5% inhibition of 83.4%.

The experiment is the same for the next values; noted with them: read-out: Kv1.5 IC50.
Regarding `CC1=C(S(=O)(=O)c2ccc(Cl)cc2)C(c2ccccc2)n2nc(C(F)(F)F)cc2N1` (single isomer, unassigned) [Example 35 Isomer 2, 6-(4-Chlorophenylsulfonyl)-5-methyl-7-phenyl-2-(trifluoromethyl)-4,7-dihydropyrazolo[1,5-a]pyrimidine], the IC50 came to 252 nM.
For the compound `COc1ccc(S(=O)(=O)C2=C(C)Nc3cc(C)nn3C2c2ccc(Cl)c(Cl)c2)cc1` (single isomer, unassigned) [Example 8 Isomer 1, 7-(3,4-Dichlorophenyl)-6-(4-methoxyphenylsulfonyl)-2,5-dimethyl-4,7-dihydropyrazolo[1,5-a]pyrimidine], the concentration for half-maximal inhibition (IC50) was determined as 23 nM.
